Reference: patent US8410309B2, “Phenoxy carboxylic acid compounds and compositions for delivering active agents” (Emisphere Technologies, Inc., priority 1999, dated 2013)
Values joined by “and” are separate entries in the source; they are usually repeats but may differ in a detail not shown here. Identical values can stand only once. One block for each compound: values may come before it.

Tests used:
[1] = Insulin oral delivery, serum human insulin by ELISA; details: rats
Protocol: Oral dosing (PO) compositions of delivery agent compound and human zinc insulin (minimum 26 IU/mg available from Calbiochem—Novabiochem Corp, La Jolla, Calif.) were prepared in deionized water. […] The pH was adjusted to about 7 to 8.5 with NaOH or HCl. […] The final delivery agent compound dose, insulin dose and dose volume amounts are listed below in Table 8.
The typical dosing and sampling protocols were as follows.
Serum insulin levels were determined with an Insulin ELISA Test Kit (Kit # DSL-10-1600 from Diagnostic Systems Laboratories, Inc., Webster, Tex.), modifying the standard protocol in order to optimize the sensitivity and linear range of the standard curve for the volumes and concentrations of the samples used in the present protocol. […] The five values for each time point were averaged and the results plotted as serum insulin concentration versus time.

[2] = Recombinant human growth hormone (rhGH) oral delivery, serum rhGH by immunoassay; details: oral gavage, rats; delivery agent compound 200 mg/kg, rhGH 3 mg/kg, volume dose 1 ml
[3] = Heparin oral/intracolonic delivery, clotting time by activated partial thromboplastin time (APTT); format: in vivo, Sprague-Dawley rats; details: IC (intracolonic), rats; delivery agent compound 50 mg/kg, heparin 25 mg/kg, volume dose 1 ml; baseline about 20 seconds
Protocol: Oral gavage (PO) and/or intracolonic (IC) dosing solutions containing a delivery agent compound and heparin sodium USP were prepared in 25% aqueous propylene glycol. […] This dry mixture was dissolved in 25% v/v aqueous propylene glycol, vortexed, and placed in a sonicator (about 37° C.). The pH was adjusted to about 7 (6.5 to 8.5) with aqueous NaOH (2N). The dosing solution was sonicated to produce a clear solution. The final volume was adjusted to about 3.0 ml.
(§1) The typical dosing and sampling protocols were as follows. […] The dosing solution was expressed slowly into the colon by pressing the syringe plunger.
Citrated blood samples were collected by cardiac puncture following the administration of ketamine (88 mg/kg), typically at 0.25, 0.5, 1.0 and 1.5 hours after dosing. Heparin absorption was verified by an increase in clotting time measured by the activated partial thromboplastin time (APTT) according to the method of Henry, J. B., Clinical Diagnosis and Management by Laboratory Methods, Philadelphia, Pa., W.B. Saunders (1979). Previous studies indicated baseline values of about 20 seconds.

[4] = Low molecular weight heparin (LMWH) oral/intracolonic delivery, plasma LMWH by anti-Factor Xa assay; format: in vivo, Sprague-Dawley rats; details: IC, rats, LMWH 750 IU/kg, 1 ml/kg
Protocol: Oral dosing (PO) and/or intracolonic (IC) compositions containing a delivery agent compound and low molecular weight heparin (LMWH) were prepared in 25% aqueous propylene glycol. […] Typically, the delivery agent compound and LMWH (Parnaparin, 91 IU/mg average molecular weight about 5,000, available from Opocrin, Modena, Italy) (typically 90-105 IU/mg, average molecular weight about 5,000) were mixed by vortex as dry powders. This dry mixture was dissolved in 25% v/v aqueous propylene glycol, vortexed, and placed in a sonicator (37° C.) to produce a clear solution. The pH was adjusted to about 7 (6.5-8.5) with 2N aqueous NaOH. The dosing solution was sonicated to produce a clear solution. The final volume was adjusted to 3.0 ml.
as §1
Citrated blood samples were collected by cardiac puncture following the administration of ketamine (88 mg/kg), typically at 0.5, 1.0, 2.0, 3.0 and 4.0 hours after dosing. LMWH absorption was verified by an increase in plasma LMWH measured by the anti-Factor Xa assay CHROMOSTRATE™ Heparin anti-Xa assay (available from Organon Teknika Corporation, Durham, N.C.). […] The peak of these mean plasma LMWH concentrations is reported below in Table 5.

[5] = Salmon calcitonin (sCT) oral delivery, serum sCT by EIA; details: rats, delivery agent compound dose 150 mg/kg, sCT dose 30 μg/kg
[6] = delivery agent compound 100 mg/kg, insulin 3 mg/kg, 0.5 ml/kg
[7] = delivery agent compound 200 mg/kg, insulin 0.5 mg/kg, 1 ml/kg
[8] = delivery agent compound 50 mg/kg

SMILES: CCC(=O)c1ccccc1OCCCCCCCCCC(=O)O [Compound 29]
Mean Peak APTT ± SD [3]: 105.01 ± 115.28 s and 111.46 ± 108.58 s | Mean Peak Serum [rhGH] [2]: 0 ng/mL

SMILES: Nc1cc(Cl)ccc1OCCCCCCCC(=O)O [Compound 22]
Mean Peak APTT ± SD [3]: 287.9 ± 120.1 s | Mean Peak Plasma LMWH Concentration ± SD ([4]; delivery agent compound 10 mg/kg): 0.396 ± 0.153 IU/ml | Mean Peak Plasma LMWH Concentration ± SD ([4]; delivery agent compound 25 mg/kg): 1.496 ± 0.153 IU/ml | Mean Peak Plasma LMWH Concentration ± SD [4, 8]: 1.842 ± 0.205 IU/ml | Mean Peak Serum [INS] ± SD [1, 7]: 24.16 ± 28.11 μU/ml | Mean Peak Serum [rhGH] [2]: 0 ng/mL

SMILES: CC(=O)Nc1ccccc1OCCCCCCCC(=O)O [Compound 24]
Mean Peak Serum [rhGH] [2]: 1.76 ng/mL

SMILES: O=C(O)CCCCOc1ccccc1F [Compound 75]
Mean Peak Serum [INS] ± SD [1, 7]: 33.88 ± 38.49 μU/ml and 32.54 ± 19.78 μU/ml

SMILES: Nc1ccccc1OCCCCC(=O)O [Compound 21]
Mean Peak Serum [INS] ± SD [1, 7]: 14.46 ± 21.61 μU/ml | Mean Peak Serum [rhGH] [2]: 19.6 ng/mL

SMILES: Nc1cc(Cl)ccc1OCCCCC(=O)O [Compound 23]
Mean Peak Serum sCT (pg/ml ± SD) (SE) ([5]; dose volume 1 (ml), 150 mg/kg): 161 ± 150 pg/mL and 122 ± 273 pg/mL

SMILES: CCC(=O)c1ccccc1OCCCC(=O)O [Compound 26]
Mean Peak APTT ± SD [3]: 76.7 s and 41.534 ± 25.56 s | Mean Peak Plasma LMWH Concentration ± SD [4, 8]: 0.262 ± 0.106 IU/ml | Mean Peak Serum [INS] ± SD [1, 6]: 240.5 ± 528.29 μU/ml | Mean Peak Serum [rhGH] [2]: 8.3 ng/mL

SMILES: O=C(O)CCCOc1ccccc1O [Compound 4]
Mean Peak APTT ± SD [3]: 40.3 ± 17.8 s and 23.076 ± 4.72 s and 37.148 ± 39.67 s | Mean Peak Serum sCT (pg/ml ± SD) (SE) ([5]; dose volume 1 (ml), 150 mg/kg): 187 ± 177 pg/mL and 195 ± 436 pg/mL | Mean Peak Serum [rhGH] [2]: 12.6 ng/mL

Second part, led by results:

Mean Peak Serum [INS] ± SD [1, 6]: 70.69 ± 127.89 μU/ml
SMILES: O=C(O)CCCCCCCOc1cc([N+](=O)[O-])ccc1O [Compound 74]

Mean Peak Serum [rhGH] [2]: 1.5 ± 3.3 ng/mL
SMILES: O=Cc1ccccc1OCCCCCC(=O)O [Compound 60]

Mean Peak Serum [INS] ± SD [1, 7]: 132.3 ± 154.5 μU/ml
SMILES: COc1ccccc1OCCCCCCCC(=O)O [Compound 35]
Mean Peak APTT ± SD [3]: 65.8 ± 35.5 s

Mean Peak Serum [INS] ± SD [1, 7]: 315.53 ± 154.56 μU/ml
SMILES: O=Cc1ccccc1OCc1ccc(C(=O)O)cc1 [Compound 59]

Mean Peak Serum [rhGH] [2]: 29 ng/mL
SMILES: CC(C)(O)c1ccccc1OCc1ccc(C(=O)O)cc1 [Compound 37]

Mean Peak Serum sCT (pg/ml ± SD) (SE) ([5]; dose volume 1 (ml)): 133 ± 90 pg/mL
SMILES: O=C(O)c1ccc(C(O)COc2ccccc2O)cc1 (stereo not drawn) [Compound 79]

Mean Peak Serum sCT (pg/ml ± SD) (SE) ([5]; dose volume 4 (ml)): 109 ± 244 pg/mL | Mean Peak Plasma LMWH Concentration ± SD ([4]; delivery agent compound 50 mg/kg, 50 mg/kg): 0.952 IU/ml and 1.114 ± 0.254 IU/ml | Mean Peak Serum [rhGH] [2]: 0 ng/mL
SMILES: O=C(O)c1ccc(COc2ccccc2)cc1 [Compound 66]

Mean Peak Serum [rhGH] [2]: 0 ng/mL
SMILES: COc1ccc(C(C)=O)c(OCCCCCCCC(=O)O)c1 [Compound 56]
Mean Peak Serum sCT (pg/ml ± SD) (SE) ([5]; dose volume 1 (ml), 150 mg/kg): 165 ± 243 pg/mL and 90 ± 125 pg/mL and 113 ± 115 pg/mL and 175 ± 150 pg/mL

Mean Peak Serum sCT (pg/ml ± SD) (SE) ([5]; dose volume 1 (ml)): 34 ± 47 pg/mL | Mean Peak Plasma LMWH Concentration ± SD [4, 8]: 3.046 ± 0.422 IU/ml | Mean Peak Serum [rhGH] [2]: 6.37 ng/mL
SMILES: CC(=O)c1ccccc1OCCCCCCCCCC(=O)O [Compound 54]
Mean Peak APTT ± SD [3]: 31.56 ± 7.54 s
